Assay results: patent US20250312409A1, “METHODS OF TREATING DILATED CARDIOMYOPATHY AND HEART FAILURE” (ARIZONA BOARD OF REGENTS ON BEHALF OF THE UNIVERSITY OF …, priority 2022, published 2025)
Several values for one entry are separate records, joined by “and”; a condition that tells them apart may be missing. Equal entries are not always repeated. Non-standard residues stand in square brackets, D forms with d. Residues, ends and D or L forms follow the SMILES beside them. *: point of attachment. dPhe(4-NHCONH2) = NC(=O)Nc1ccc(C[C@@H](N)C(=O)O)cc1; Dihydroorotyl(S) = O=C1C[C@@H](C(=O)*)NC(=O)N1; dPhe(4-Cl) = N[C@H](Cc1ccc(Cl)cc1)C(=O)O; Phe(4-NH2) = Nc1ccc(C[C@H](N)C(=O)O)cc1; d2Nal = N[C@H](Cc1ccc2ccccc2c1)C(=O)O; Lys(iPr) = CC(C)NCCCC[C@H](N)C(=O)O; d3Pal = N[C@H](Cc1cccnc1)C(=O)O

Columns and labels:
castrated male DCM mice = assay: Partial restoration of T (implanted pellets) in castrated DCM mice; assay type: in vivo, mouse
Description: Ejection fraction (EF, %) was analyzed in littermate DCM male mice (on C57BL/6J background) at 20 weeks of age corresponding to Stage D heart failure (HF) in non-castrated DCM mice. […] Dotted line: level in WT congenic group (n=8). T plasma levels analyzed by ELISA. Data analyzed by One-way-ANOVA with Tukey's multiple comparison test and represent mean+/−SEM; *=between DCM groups; **P<0.001; +=DCM groups vs. WT group: ++++P<0.0001.
FIGS. 2A-2B show lowering testosterone (T) levels increases cGMP levels in plasma (FIG. 2A) and cytosol fraction of cardiac LV extract (FIG. 2B) of male DCM mice. cGMP was analyzed in littermate mice by ELISA; data were normalized to 100 ug of total protein in extracts. Groups: at 20 weeks of age=Stage D heart failure (HF) in non-castrated DCM mice. […] Dotted line: level in WT congenic group (n=8). T plasma levels analyzed by ELISA. Data analyzed by One-way-ANOVA with Tukey's multiple comparison test and represent mean+/−SEM; *=between DCM groups; **P<0.001; +=DCM groups vs. WT group: ++++P<0.0001.
Referring to FIG. 1, T suppression in male DCM mice (low level) by surgical castration (initiated at HF stage A) improves systolic dysfunction vs. non-castrated DCM group (normal level).

[1] = tested on: male and female mice with DCM and WT littermates; conditions: mouse, in vivo
male WT mice (C57BL/6J) = assay: Degarelix treatment of WT control mice (EF, plasma ANP and cGMP); assay type: in vivo, mouse; conditions: male WT vs untreated WT group
Description: (§1) Treatment was initiated at 4 weeks of age when mice were at risk for DCM. The EF was analyzed at 20 weeks when DCM untreated mice progressed to Stage D HF. […] This treatment also elevated EF in males WT vs. untreated WT group (Mann-Whitney test: P<0.01).

male DCM mice [2] = assay: Degarelix treatment in progressive DCM mouse model: cardiac function, remodeling, edema, HF; assay type: in vivo
Description: Ejection fraction (EF, %) (FIG. 4A), heart-to-body weight ratios, HW/BW (FIG. 4B), lung-to-body weight ratios, LW/BW, (FIG. 4C) and pleural effusion, (FIG. 4D) were analyzed in male mice with DCM and WT control mice (C57BL/6J) at 20 weeks of age corresponding to Stage D HF in non-treated DCM mice. Groups: Normal non-T-treated DCM mice (black, left bar); Low T (˜20%) DCM mice treated with degarelix, 15 mg/kg subcutaneous injection every 4 weeks (blue, right bar). Dotted line: Levels in WT congenic group (n=8). T plasma level analyzed by ELISA. Data (FIG. 4A-4C) analyzed by One-way-ANOVA with Tukey's multiple comparison test and represent mean t SEM. (FIG. 4D) analyzed by Fisher exact test.
To gain translational insights relevant to human DCM-HF, inventors analyzed the outcome of T-lowering therapy in a well-established mouse progressive DCM model on C57BL/6J strain with defined age-related HF stages (time points) for evaluation of systolic function, edema, blood sample collections, etc., in studies of male and female DCM mice. This animal model is normotensive and without kidney dysfunction, and arrhythmia, which excludes variables of blood pressure, arrhythmias, and kidney dysfunction.
as §1

male DCM mice [3] = assay: Plasma biomarkers (ELISA) in degarelix-treated DCM mice; assay type: in vivo, mouse; conditions: 20 weeks of age
Description: Ejection fraction (EF, %) (FIG. 4A), heart-to-body weight ratios, HW/BW (FIG. 4B), lung-to-body weight ratios, LW/BW, (FIG. 4C) and pleural effusion, (FIG. 4D) were analyzed in male mice with DCM and WT control mice (C57BL/6J) at 20 weeks of age corresponding to Stage D HF in non-treated DCM mice. Groups: Normal non-T-treated DCM mice (black, left bar); Low T ( 20%) DCM mice treated with degarelix, 15 mg/kg subcutaneous injection every 4 weeks (blue, right bar). Dotted line: Levels in WT congenic group (n=8). T plasma level analyzed by ELISA. Data (FIG. 4A-4C) analyzed by One-way-ANOVA with Tukey's multiple comparison test and represent mean t SEM. (FIG. 4D) analyzed by Fisher exact test. […] Groups: at 20 weeks of age=Stage D HF in non-castrated DCM mice. Normal T (100%) non-treated DCM mice (black, left bar); Low T ( 17%) castrated or degarelix-treated DCM mice (blue, right bar); Dotted line: Levels in WT congenic group (n=6-8). T plasma level analyzed by ELISA. Data analyzed by One-way-ANOVA with Tukey's multiple comparison test and represented as mean f SEM; +++P<0.001 in DCM vs. WT group; ****P<0.0001 in castrated vs non-castrated DCM groups. […] Plasma biomarkers levels were analyzed in littermate mice with and without DCM. […] Groups: Normal T, non-treated DCM mice (black, left bar); Low T ( 20%), DCM mice treated with degarelix, 15 mg/kg subcutaneous injection every 4 weeks (blue, right bar). Dotted line: level in WT congenic group (n=6). T plasma level analyzed by ELISA. Data analyzed by One-way-ANOVA with Tukey's multiple comparison test and represent mean t SEM; *=between DCM groups: **P<0.01; DCM groups vs. WT group: ++++P<0.0001; +++P<0.001.

humans and mice = conditions: cited from earlier work

Question: Which “cGMP levels in plasma” value (castrated male DCM mice; Reduced T vs Low T castrated DCM mice, FIG. 2A) does the source give for `C[C@]12CC[C@H]3[C@@H](CCC4=CC(=O)CC[C@@]43C)[C@@H]1CC[C@@H]2O` [T, testosterone] here?
Answer: The value was “lowered cGMP levels”.

Question: And the “cGMP levels in cardiac LV tissue” value (castrated male DCM mice; Reduced T vs Low T castrated DCM mice, FIG. 2B)?
Answer: The value was “lowered cGMP levels”.

Question: And the “T plasma level (relative to Normal T, 100%)” value (castrated male DCM mice; castrated DCM mice with partially restored T, 20 weeks of age, ELISA)?
Answer: Its value is ~60%.

Question: What about the “Ejection fraction (EF)” value (castrated male DCM mice; castrated DCM mice, implanted pellets for 3 months, vs castrated (Low T), FIG. 1) of the same compound?
Answer: Its value is “trend toward reduced EF”.

Question: What does the source list for `CC(=O)N[C@H](Cc1ccc2ccccc2c1)C(=O)N[C@H](Cc1ccc(Cl)cc1)C(=O)N[C@H](Cc1cccnc1)C(=O)N[C@@H](CO)C(=O)N[C@@H](Cc1ccc(NC(=O)[C@@H]2CC(=O)NC(=O)N2)cc1)C(=O)N[C@H](Cc1ccc(NC(N)=O)cc1)C(=O)N[C@@H](CC(C)C)C(=O)N[C@@H](CCCCNC(C)C)C(=O)N1CCC[C@H]1C(=O)N[C@H](C)C(N)=O` [degarelix] (Ac-[d2Nal][dPhe(4-Cl)][d3Pal]S[Phe(4-NH2)](Dihydroorotyl(S))[dPhe(4-NHCONH2)]L[Lys(iPr)]P[dA]-NH2)?
Answer: body weights [1]: did not influence; motor function [1]: did not influence; Ejection fraction (EF) (male WT mice (C57BL/6J); Mann-Whitney P<0.01): elevated EF; plasma ANP levels (male WT mice (C57BL/6J); P<0.001 Mann-Whitney): elevated ANP and cGMP plasma levels; plasma cGMP levels (male WT mice (C57BL/6J); P<0.001 Mann-Whitney): elevated ANP and cGMP plasma levels; heart failure (HF) (male DCM mice [2]; 20 weeks of age): attenuates HF; heart-to-body weight ratio, HW/BW (male DCM mice [2]; 20 weeks of age, FIG. 4B, P<0.001): reduces pathologically elevated heart; lung-to-body weight ratio, LW/BW (pulmonary edema) (male DCM mice [2]; 20 weeks of age, FIG. 4C, P<0.01): reduced pulmonary edema; pleural effusion (male DCM mice [2]; 20 weeks of age, FIG. 4D, P<0.05, Fisher exact test): reduction; Ejection fraction (EF) (male DCM mice [2]; treatment from 4 weeks of age, analyzed at 20 weeks (Stage D HF in untreated), vs untreated DCM, FIG. 4A): significantly improved EF; plasma norepinephrine levels (male DCM mice [3]; FIG. 5A): lowering norepinephrine plasma levels; plasma renin activity (PRA) levels (male DCM mice [3]; FIG. 5C): normalization of PRA levels; pro-renin receptor ((P)RR) levels (male DCM mice [3]; FIG. 5E): normalization of (P)RR levels; total renin levels in circulation (male DCM mice [3]; FIG. 5F): did not affect total renin levels; plasma ANP levels (analyzed as NT-ANP) (male DCM mice [3]; degarelix 15 mg/kg s.c. every 4 weeks, FIG. 6A): increases plasma levels of ANP; plasma cGMP levels (male DCM mice [3]; degarelix 15 mg/kg s.c. every 4 weeks, FIG. 6B): increases plasma levels; T plasma level (relative to Normal T, 100%) (male DCM mice [3]; degarelix 15 mg/kg subcutaneous every 4 weeks, ELISA): ~20% and ~17%; circulating T levels (humans and mice; humans and mice, reversible, without T surge and clinical side effects): to surgical castration level; muscle mass (humans and mice; in vivo): does not affect muscle mass
